Experimental data as given in US5550128A, “Enantiomers of gamma methylene 10-deaza aminopterin and process for preparing the same” (priority 1994, dated 1996).

Tests used:
[1] = test system: Human HCT-8 Ileocecal Xenograft; assay: Antitumor activity by I.V. push, daily × 5, against human HCT-8 ileocecal xenograft
Description: [M. G. Nair and Ann Abraham, U.S. Pat. No. 4,996,207 (1991); M. G. Nair, U.S. Pat. No. 5,073,554 (1991 )]. […] [Ann Abraham, M. G. Nair, et al. Advanced in Exp. Med. and Biol. 663-666 (1993)].
MIR: Maximum inhibitory rate. TD: Tumor doubling time.
CR: Complete Regression. PR Partial Regression.
(§1) MWL: Maximum Weight Loss.

[2] = test system: Human HCT-8 Ileocecal Xenograft; assay: Antitumor activity by continuous i.v. infusion (C.I.) × 5d against human HCT-8 ileocecal xenograft; format: in vivo, human (xenograft in nude mice); conditions: for CR: Complete Regression / MIR: Maximum inhibitory rate / PR: Partial Regression / TD: Tumor doubling time: C.I. × 5d
Description: (§2) Antitumor Activity of MDAM by C.I. × 5d
(§3) against HUMAN HCT-8 Ileocecal Xenograft
(§4) MIR: Maximum inhibitory rate.
(§5) TD: Tumor doubling time.
(§6) CR: Complete Regression.
(§7) PR: Partial Regression.
as §1

[3] = as above; format: in vivo, human (xenograft in nude mice); conditions: mouse, in vivo, iv; 0.25 mg/kg, C.I. × 5d; read-out: death
Description: as §2, §3, §4, §5, §6, §7, §1

CN(Cc1cnc2nc(N)nc(N)c2n1)c1ccc(C(=O)N[C@@H](CCC(=O)O)C(=O)O)cc1 [MTX, methotrexate, reference compound]
CR: Complete Regression ([1]; 1 mg/kg, i.v. push daily × 5): 0% | MIR: Maximum inhibitory rate ([1]; 1 mg/kg, i.v. push daily × 5): 29.8 ± 8.6% | MWL: Maximum Weight Loss ([1]; 1 mg/kg, i.v. push daily × 5): 14.0 ± 3.0% | PR: Partial Regression ([1]; 1 mg/kg, i.v. push daily × 5): 0% | TD: Tumor doubling time ([1]; 1 mg/kg, i.v. push daily × 5): 4.6 ± 0.6 days | measurable antitumor activity ([1]; iv push, HCT-8 xenograft): did not exhibit any measurable antitumor activity | CR: Complete Regression ([2]; 0.1 mg/kg): 0% | MIR: Maximum inhibitory rate ([2]; 0.1 mg/kg): 50.6 ± 9.6% | PR: Partial Regression ([2]; 0.1 mg/kg): 0% | TD: Tumor doubling time ([2]; 0.1 mg/kg): 4.8 ± 0.4 days | CR: Complete Regression ([2]; 0.2 mg/kg): 0% | MIR: Maximum inhibitory rate ([2]; 0.2 mg/kg): 52.8 ± 8.5% | PR: Partial Regression ([2]; 0.2 mg/kg): 0% | TD: Tumor doubling time ([2]; 0.2 mg/kg): 5 ± 0.5 days | CR: Complete Regression ([2]; 0.25 mg/kg): 0% | PR: Partial Regression ([2]; 0.25 mg/kg): 0% | measurable antitumor activity ([2]; continuous 5 day iv infusion, HCT-8 xenograft): did not exhibit any measurable antitumor activity | mortality [3]: 100%
